From patent publication US9540640B2, “Compositions and methods for inhibiting hypdxia induced damage” (Health Research, Inc., priority 2012, dated 2017)

System: kidneys
Experiment: Mouse model of acute renal ischemia, plasma markers of kidney damage
Assay type: in vivo
Details: i.p. 30 mg/kg or 90 mg/kg 30 minutes before 25 min ischemia of both kidneys, 24 hrs after reperfusion, FIG. 8
Experimental: In particular, the protective effects of chemically inhibiting TACR1 were examined in a mouse model of acute renal ischemia using the following protocol: i. 30 minutes before the surgery, mice received an i.p. injection of a TACR1 inhibitor (L-733,060) at either 30 mg/kg or 90 mg/kg, or of the respective vehicle (saline). ii. Under general anesthesia with Ketamin/Rompun, the mice were subjected to 25 min of ischemic of both kidneys. Each of the 2 kidneys was exposed through a flank incision. The kidney pedicle was clamped with atraumatic clamps for 25 min. iii. Mice were kept in an incubator at constant temperature 36 C during the 25 min of ischemia. After 25 min of ischemia, clamps were removed and wounds were closed. iv. 24 hrs after reperfusion blood samples were taken and mice were sacrificed. v. The levels of biochemical markers of kidney damage were measured in the plasma of the collected blood. Specifically, creatinine, neutrophil gelatinase-associated lipocalin (NGAL), osteopontin and urea (blood urea nitrogen) were measured.

Molecule | signs of kidney damage (plasma creatinine, NGAL, osteopontin, urea)
FC(F)(F)c1cc(CO[C@H]2CCCN[C@H]2c2ccccc2)cc(C(F)(F)F)c1 [L-733,060, (2S,3S)-3-{[3,5-bis(trifluoromethyl)benzyl]oxy}-2-phenylpiperidine] | decreases the appearance of signs of kidney damage

System: HK-2 cells
Experiment: Individual shRNA screening: survival of transduced HK-2 cells under hypoxia (Protocol 2)
Assay type: cell-based, human
Details: viable shRNA-transduced HK-2 cells after hypoxia (0.2% oxygen 48 hours, low glucose DMEM) vs control HK-2 cells; 2-6 independent experiments; methylene blue
From the text: shRNA of the invention can be expressed from any suitable vector such as a recombinant viral vector either as two separate, complementary RNA molecules, or as a single RNA molecule with two complementary regions. In this regard, any viral vector capable of accepting the coding sequences for the shRNA molecule(s) to be expressed can be used. Examples of suitable vectors include but are not limited to vectors derived from adenovirus, adeno-associated virus, retroviruses (e.g, lentiviruses, Rhabdoviruses, murine leukemia virus), herpes virus, and the like. A preferred virus is a lentivirus. The tropism of the viral vectors can also be modified by pseudotyping the vectors with envelope proteins or other surface antigens from other viruses. As an alternative to expression of shRNA in cells from a recombinant vector, chemically stabilized shRNA or siRNAs may also be used administered as the agent in the method of the invention. Vectors for expressing shRNA which in turn produces siRNA once introduced into a cell are commercially available. Further, shRNAs which facilitate produce of siRNA targeted to virtually every known human gene are also known and are commercially available. In embodiments specific shRNAs are those which comprise polynucleotide sequences presented in Table 2, wherein those sequences are targeted to the genes as indicated. In particular, Table 2 provides the sequence of segments of shRNAs that target the HRGs of the present disclosure. […] “RPCI” under source designates the “shRNA Resource of Roswell Park Cancer Institute” which distributes shRNAs from commercial vendors. The catalog # column signifies a reference under which each of the shRNAs are made available to the public. The SEQ ID # column refers to the sequence listing that forms a part of this disclosure. The polynucleotide sequences provided in Table 2 are cDNA sequences that recognize the target gene mRNA via shRNA. It will be recognized by those skilled in the art that the shRNAs used in the Examples presented herein have the identical sequences as listed in Table 2, except for substitution of each thymine with uracil. It will be also recognize that each of the shRNAs as used in practice has additional sequences that are typical of shRNA constructs, but that the sequences listed in Table 2 are the ones that are antisense to the mRNA of the indicated HRGs.
Protocol 2: Individual shRNA screening.
Cell Preparation: Lentiviral vectors containing various shRNAs of interest were obtained from commercial sources, and packaged in 293T cells. HK-2 cells were then transduced with these expression constructs and selected for the presence of a vector-encoded antibiotic resistance marker.
Hypoxia Protocol: Day 0: HK-2 cells containing individual shRNAs were seeded in triplicate on two 96-well plates, 3×10^4 cells/well. Negative controls included uninfected cells or cells infected with a corresponding empty vector. Day 1: Keratinocyte medium was removed from the plates and fresh DMEM containing low glucose was added. One of the plates was then transported to a chamber that contained 0.2% oxygen for 48 hours, while the other remained at normoxia for the same period of time. Day 3: The cells were rescued from hypoxia and the plates were immediate fixed and stained with methylene blue to assess survival. Results were then graphed as the percent of stain of the corresponding cells incubated in normoxic conditions minus the background (non-specific dye absorption by empty wells).

Molecule | geometric mean of fold increase in cell number
11 (TCTTGCCAAGGTTTATGGC; expressed or natural sequence) [compound 11] | 8 fold
12 (ATCTCTTTGGACTTGAAGC; expressed or natural sequence) [compound 12] | 9 fold
13 (TGATGTCTGGTGTAGTAGG; expressed or natural sequence) [compound 13] | 10 fold
14 (ATCTCCTGAATATTTCAGCAG; expressed or natural sequence) [compound 14] | 13 fold
15 (ATGACATTGATCTGATCCA; expressed or natural sequence) [compound 15] | 23 fold
16 (TCTTCAACAGAATCCACTT; expressed or natural sequence) [compound 16] | 6 fold
17 (AAACGCTAAAGATGAGTCC; expressed or natural sequence) [compound 17] | 7 fold
18 (ATTGGTTTGATTTCCTCCC; expressed or natural sequence) [compound 18] | 18 fold
19 (AACATGTTCATAACCAGGTCG; expressed or natural sequence) [compound 19] | 26 fold
20 (TCTTCTAAGCACTGAAGAG; expressed or natural sequence) [compound 20] | 11 fold
21 (TTACTGAACACGATCAGCAGG; expressed or natural sequence) [compound 21] | 22 fold
22 (TACTGAACACGATCAGCAG; expressed or natural sequence) [compound 22] | 9 fold
23 (ATAAATATCTGTTCCCAAG; expressed or natural sequence) [compound 23] | 15 fold
24 (TTCTTGTAAATAATGAGCG; expressed or natural sequence) [compound 24] | 5 fold
25 (TTCTCATAAATCTTGTTCG; expressed or natural sequence) [compound 25] | 15 fold
26 (TTCCAGTAGAAGTAGTACT; expressed or natural sequence) [compound 26] | 12 fold
27 (TTGGATCTGTAAAGACGCCAC; expressed or natural sequence) [compound 27] | 5 fold

System: HK-2 cells
Experiment: Combined inhibition of RhoB (shRNA) and TACR1 (L-733,060): HK-2 survival in hypoxia
Assay type: cell-based
Details: L-733,060 5 μM on HK2-RhoB cells (shRNA to RhoB) vs either one alone; 0.2% oxygen 48 hours; FIG. 9
Experimental: To obtain the data presented in FIG. 9, HK-2 cells were trasnduced with either a construct expressing an shRNA to RhoB (cell line “HK2-RhoB”) or the corresponding empty vector (cell line “HK2-vector”). The survival of cells in hypoxic condition with or without addition of TACR1 inhibitor was evaluated using the following protocol: Day 0: HK-2 cells were seeded on two 96-well plates, 3×10^4 cells/well. Day 1: Keratinocyte medium was removed from the plates and fresh DMEM containing low glucose. TACR1 inhibitor (L-733,060; 5 μM) was added to half of the wells of either HK2-RhoB or HK2-vector. One hour later one of the plates was transported to a chamber that contained 0.2% oxygen for 48 hours, while the other remained at normoxia for the same period of time. Day 3: The cells were rescued from hypoxia and the plates were immediate fixed and stained with methylene blue to assess survival. Results were then graphed as the percent of stain of the corresponding cells incubated in normoxic conditions minus the background (non-specific dye absorption by empty wells).

Molecule | protection from hypoxia, combined inhibition of RhoB and TACR1
FC(F)(F)c1cc(CO[C@H]2CCCN[C@H]2c2ccccc2)cc(C(F)(F)F)c1 [L-733,060, (2S,3S)-3-{[3,5-bis(trifluoromethyl)benzyl]oxy}-2-phenylpiperidine] | better protection that inhibition of either one alone

System: HKC8 cells
Experiment: TACR1 inhibitor: protection of HKC8 cells under hypoxia
Assay type: cell-based
Details: 5 μM, 0.2% oxygen 48 hours, low glucose DMEM; methylene blue; FIG. 11
Experimental: We also tested the protective activity of a chemical TACR1 inhibitor in HKC8 cells using the following protocol. Day 0: HKC8 cells were seeded in complete keratinocyte medium at a density of 2×10^4 cells per well on two 96-well plates. Day 1: Keratinocyte medium was removed from the plates and fresh DMEM containing low glucose and 5 μM TACR1 inhibitor (L-733,060) was added where indicated. Treated and untreated cells were present on the plates in triplicate. The two plates were incubated in the presence of the inhibitor at normal growth conditions for 1 hour, at which time one of the plates was transported to a chamber that contained 0.2% oxygen for 48 hours, while the other remained at normoxia for the same duration. Day 3: Following exposure to hypoxia, the cells were rescued and the plates were immediately fixed and stained with methylene blue to assess survival. Results were then graphed as the percent of stain of the corresponding cells incubated in normoxic conditions minus the background (non-specific dye absorption by empty wells).

Molecule | protection against the effects of hypoxia on HKC8 cells
FC(F)(F)c1cc(CO[C@H]2CCCN[C@H]2c2ccccc2)cc(C(F)(F)F)c1 [L-733,060, (2S,3S)-3-{[3,5-bis(trifluoromethyl)benzyl]oxy}-2-phenylpiperidine] | strongly protective

System: hRPTEC cells
Experiment: TACR1 inhibitor: survival of hRPTEC cells under hypoxia
Assay type: cell-based
Details: 0.2% oxygen 48 hours, low glucose DMEM, inhibitor added 1 hour before; methylene blue; FIG. 7
Experimental: The following protocol was used: Day 0: hRPTEC were seeded on two 96-well plates, 2×10^4 cells/well. Day 1: Keratinocyte medium was removed from the plates and fresh DMEM containing low glucose and the indicated concentration of the TACR1 inhibitor (L-733,060) was added. Each concentration was examined in quadruplicate fashion. The two plates were incubated in the presence of the inhibitor at normal growth conditions for 1 hour, at which time one of the plates was transported to a chamber that contained 0.2% oxygen for 48 hours, while the other remained at normoxia for the same period of time. Day 3: The cells were rescued from hypoxia and the plates were immediate fixed and stained with methylene blue to assess survival. The percent of stain of the corresponding cells incubated in normoxic conditions minus the background (non-specific dye absorption by empty wells) was calculated as a measure of cell resistance to the hypoxia. The results were plotted as a fold increase in resistance over that of cells not treated with L-733,060.

Molecule | survival of hRPTEC cells under hypoxia
FC(F)(F)c1cc(CO[C@H]2CCCN[C@H]2c2ccccc2)cc(C(F)(F)F)c1 [L-733,060, (2S,3S)-3-{[3,5-bis(trifluoromethyl)benzyl]oxy}-2-phenylpiperidine] | significantly increases survival
